Data: patent US20030229027A1, “Stabilized natural cannabinoid formulation” (priority 2002, published 2003)
Where two headings read alike, the source gives them in different places.

Experiments:
[1] = cited from earlier work; for Glass transition temperature: at dry conditions; for Tg / Tg′: comparison with inulin
[2] = THC-analysis control experiments (degradation of THC in methanol); type: physicochemical
[3] = Dynamic vapour sorption (gravimetric sorption analyser); type: physicochemical; conditions: after exposure to 90% RH
Experimental: Water sorption isotherm of freeze dried inulin was measured at ambient pressures and 25° C. using a gravimetric sorption analyser (DVS-1000 Water Sorption Instrument, Surface Measurement Systems Limited, London, UK). The uptake of water by inulin was measured from 0% to 90% RH with steps of 10% RH. The initial sample weight was about 10 mg. It was assumed that equilibrium was reached when the change of weight was less than 0.9 μg during a ten minutes period.
The water sorption of THC was determined according to the procedure described above for inulin. The THC was dissolved in methanol before it was put in the DVS-1000 instrument. During initial exposure to a dry nitrogen flow, the methanol was evaporated. As soon as about 90% of the solvent was evaporated, additional THC solution was added to the sample-cup. This procedure was repeated until 15 mg of pure THC was present in the sample cup. After the evaporation of the last methanol, the relative humidity was increased from 0% to 90% in steps of 10%.

[4] = Modulated DSC, thermal behavior of THC; type: physicochemical; conditions: mDSC thermogram of THC
Experimental: The thermal behavior of THC was determined by mDSC. A modulation amplitude of ±0.318° C. every 60 sec and a heating rate of 2° C./min was used. During measurement, the sample cell was purged with nitrogen at a flow rate of 35 mL/min. A blob of pure THC was put in the sample cup. After initial cooling the sample was first scanned till 50° C. In this way the blob was able to spread over the entire bottom of the sample pan, thereby increasing the surface available for heat transfer during the second scan. The sample was then cooled until −40° C. and heated to 350° C.

[5] = Solubility of THC in water; conditions: 20 °C, thermodynamic from solid, stirred 3 days
[6] = Stability (no clouding) of water-alcohol solutions of inulin and THC; type: physicochemical; conditions: 0.4% w/v THC
Experimental: The suitable volume ratio of water/alcohol was investigated by testing the stability of 10% w/v inulin solutions with different ratio's water/alcohol. Inulin was dissolved in different amounts of water (3 to 7 mL). Subsequently different amounts of alcohol were added until a total volume of 10 mL. For THC the same procedure was followed, but now water was added to the alcoholic THC solution. The solution was judged as sufficiently stable if no clouding appeared within the time of processing. For spray drying batches were made which required up to half an hour of spraying. Therefore the solution should be clear for at least that period of time. For freeze drying the solution should be clear until it is frozen. In this case ten minutes is sufficient. Furthermore, it was investigated whether the aqueous inulin solution could be added slowly or should be mixed instantaneously.
The three relevant alcohol's were added to a solution of inulin in water. It was determined for how long the obtained solution stayed clear. After 1 g of inulin was dissolved in 4 mL water, water and/or alcohol was added to a total volume of 10 mL, yielding a 10% w/v solution. The largest concentration of alcohol was thus obtained. THC was dissolved in the alcohol of interest. Subsequently, alcohol and/or water was added to give 0.4% w/v solutions.

SMILES: OC[C@@H](O)[C@@H](O[C@H]1O[C@H](CO)[C@@H](O)[C@H](O)[C@H]1O)[C@H](O)[C@@H](O)CO [Maltitol, maltitol]
- Glass transition temperature [1]: 44 °C

SMILES: CCCCCc1cc(O)c2c(c1)OC(C)(C)[C@@H]1CCC(C)=C[C@@H]21 [THC, Δ^9-tetrahydrocannabinol]
- Degradation of THC calibration solutions ([2]; solutions in methanol, 2 weeks at 4° C.): no significant degradation
- Degradation of THC by ultrasonic treatment ([2]; ten minutes ultrasonic treatment in methanol): no degradation
- Degradation of THC during extraction ([2]; two days of extraction in methanol): no significant degradation
- Water absorbed [3]: 0.3%
- Onset of endothermic peak (evaporation) [4]: 200 °C
- Tg [4]: 10 °C
- solubility at 3 days [5]: < 1 µg/mL
- % v/v water for a stable solution ([6]; EtOH (ethanol)): ≤ 53% maximum % v/v
- % v/v water for a stable solution ([6]; TBA (t-butanol)): ≤ 63% maximum % v/v
- % v/v water for a stable solution ([6]; n-PrOH (n-propanol)): ≤ 62% maximum % v/v

SMILES: OC[C@@H](O)[C@@H](O[C@@H]1O[C@H](CO)[C@H](O)[C@H](O)[C@H]1O)[C@H](O)[C@@H](O)CO [lactitol]
- Glass transition temperature [1]: 33 °C

SMILES: OC[C@H]1O[C@@](CO)(O[C@H]2O[C@H](CO)[C@@H](O)[C@H](O)[C@H]2O)[C@@H](O)[C@@H]1O [sucrose]
- Tg [1]: 76 °C
- Tg′ [1]: −39 °C

SMILES: OC[C@H]1O[C@H](O[C@H]2O[C@H](CO)[C@@H](O)[C@H](O)[C@H]2O)[C@H](O)[C@@H](O)[C@@H]1O [trehalose]
- Tg [1]: 120 °C
- Tg′ [1]: −36 °C
